These results are taken from US12721838B2 (Henry Ford Health System, priority 2020, dated 2026).

The term inhibition denotes the share of the control response that was lost under treatment.

The structures appear in SMILES notation.

Data set [1] concerns Trib2-OE cells. The data set is described as follows: Enzalutamide sensitivity of Trib2-overexpressing prostate cancer cells. Format: cell-based, human. The following applies: Trib2-OE cells, DCV 6 μM. An excerpt:
Prostate cancer cells were transfected with full length human gene to overexpress Trib2 (FIG. 18). […] Trib2 siRNA was used in parallel experiments as a positive control.

Data set [2] relates to LNCaP-ENR cells. The data set can be described thus: Soft-agar colony formation assay. It is filed as cell-based, human. The conditions noted are these: LNCaP-ENR (ERPC) cells, three weeks; DCV at 8 μM. The protocol: Effect of DCV on soft-agar colony formation was also analyzed. LNCaP-ENR cells (10,000 per well in 6-well plates) were plated in 0.3% soft-agar on top of a base layer of 0.6% agar. The cells were treated with DCV and incubated at 37° C. for three weeks in the CO2 incubator. Cells were given fresh media and drug every fourth day. At the end of the incubation period, colonies were stained with 0.025% crystal violet, and pictures of colonies were taken with a Nikon digital camera at ×200. Image processing was done using Q-Capture Pro-7 software. Exemplary methods of the foregoing technique can be found in Sarveswaran, Sivalokanathan et al. “Inhibition of 5-lipoxygenase downregulates stemness and kills prostate cancer stem cells by triggering apoptosis via activation of c-Jun N-terminal kinase.” Oncotarget vol. 10, 4 424-436. 11 Jan. 2019, the disclosure of which is incorporated herein by reference in its entirety.

In data set [3] the target is T1, Trib2-Luciferase (Luc-Trib2) fusion (Homo sapiens, UniProt Q92519).
T1 sequence (Q92519 with tags, fused parts or gaps): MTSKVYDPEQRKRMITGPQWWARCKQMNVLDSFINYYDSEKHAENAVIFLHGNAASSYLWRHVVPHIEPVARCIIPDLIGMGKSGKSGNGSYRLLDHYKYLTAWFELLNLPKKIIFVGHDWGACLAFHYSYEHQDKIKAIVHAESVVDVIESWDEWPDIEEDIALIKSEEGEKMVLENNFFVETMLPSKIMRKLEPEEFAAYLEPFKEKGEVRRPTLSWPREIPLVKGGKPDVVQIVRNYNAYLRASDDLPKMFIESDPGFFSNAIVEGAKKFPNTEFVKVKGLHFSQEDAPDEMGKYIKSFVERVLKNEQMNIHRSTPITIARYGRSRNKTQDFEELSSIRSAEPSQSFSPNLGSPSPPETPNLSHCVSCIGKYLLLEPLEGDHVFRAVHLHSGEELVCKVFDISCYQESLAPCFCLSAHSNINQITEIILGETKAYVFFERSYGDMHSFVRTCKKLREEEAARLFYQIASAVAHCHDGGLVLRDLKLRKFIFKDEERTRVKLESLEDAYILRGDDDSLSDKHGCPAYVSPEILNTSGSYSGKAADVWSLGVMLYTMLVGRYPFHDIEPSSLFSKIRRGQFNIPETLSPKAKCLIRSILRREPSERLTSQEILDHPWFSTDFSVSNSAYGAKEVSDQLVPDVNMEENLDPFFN
The data set is described as follows: cell-based. The conditions noted are these: HFF.

Data set [4] deals with p-glycoprotein (PGP) (Homo sapiens, UniProt P08183). The following applies: cited from earlier work.
Data set [5] concerns ERPC tumors (LNCaP-ENR cells).
Procedure: BALB/c nude mice were subcutaneously injected with the LNCaP-ENR cells (1×10^6 cells per mouse) to develop tumors. Once the tumors reached a size of ~100 cubic mm, the mice were treated with 30 mg/kg/day DCV or a solution of DMSO:cremophor:PBS at 1:1:8 ratio, orally for four weeks (n=3). Tumor size and body weights were measured once per week. Tumor volumes were calculated using the following formula:
[formula] • Wherein “TV” means tumor volume; • “a” is the long diameter of a tumor; and • “b” is the short diameter of a tumor.
Tumor samples were collected at 4 weeks post-treatment, and TRIB2 protein levels in the tumors were determined by immunohistochemistry (IHC) using monoclonal anti-Trib2 antibody (Santa Cruz Bio, Santa Cruz, CA; Cat. No.: 100878) at 1:100.
The conditions of data set [6]: in vivo; cited from earlier work.
The test system of data set [7] is normal, non-cancer cells. The data set can be described thus: Effects on normal, non-cancer cells. Format: cell-based. The conditions noted are these: same experimental conditions as ERPC cells.
The target of data set [8] is T2, TRIB2 (Homo sapiens, UniProt Q92519).
T2 sequence (Q92519 1-343): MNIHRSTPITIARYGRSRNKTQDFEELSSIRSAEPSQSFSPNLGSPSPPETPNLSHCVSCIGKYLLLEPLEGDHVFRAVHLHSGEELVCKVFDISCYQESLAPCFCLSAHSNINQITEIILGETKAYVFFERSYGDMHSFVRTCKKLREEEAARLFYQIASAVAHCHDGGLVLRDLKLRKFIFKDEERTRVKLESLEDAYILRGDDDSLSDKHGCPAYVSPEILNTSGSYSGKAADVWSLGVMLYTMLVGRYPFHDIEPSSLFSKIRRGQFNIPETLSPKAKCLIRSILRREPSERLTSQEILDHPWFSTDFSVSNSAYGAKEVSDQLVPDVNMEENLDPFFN
The data set is described as follows: Western blot of TRIB2 protein levels in cancer cells. It is filed as cell-based. Set-up: Whole cell lysate proteins were analyzed by Western blot; endogenous in cells; host or cells: LNCaP-ENR (enzalutamide-resistant LNCaP) cells. The following applies: for TRIB2 protein levels: LNCaP-ENR cells, 24 hours. On the procedure: Enzalutamide-resistant prostate cancer (ERPC) cells (LNCaP-ENR cells) were plated and treated with 10 μM each of various compounds for 24 hours. Exemplary methods for developing and using LNCaP-ENR cells is disclosed in Monga, J., Subramani, D., Bharathan, A., and Ghosh, J. (2020) “Pharmacological and genetic targeting of 5-lipoxygenase interrupts c-Myc oncogenic signaling and kills enzalutamide-resistant prostate cancer cells via apoptosis.” Scientific Reports 10: 6649, the disclosure of which is incorporated herein by reference in its entirety. Whole cell lysate proteins were analyzed by Western blot. TRIB2 antibody was used to detect protein levels of TRIB2 and GAPDH was used as loading control. Monoclonal anti-Trib2 antibody was purchased from Santa Cruz Biotech, Santa Cruz, CA.
LNCaP-ENR cells were treated with varying doses (4 μM, 8 μM, or 12 μM) of DCV for 24 hours. Effects on TRIB2 protein levels and its downstream targets (e.g., pAkt, Bcl-xL, Survivin, and FOXO3) were analyzed by Western blot. GAPDH was used as loading control. Protein levels of TRIB2, pAKT (S473), Bcl-xL, and Survivin were reduced in cells treated with 12 μM of DCV compared to control-treated cells (FIG. 3A). Levels of FOXO3 protein were increased at 12 μM of DCV treatment compared to control treatment. This was expected, as FOXO3 level is known to be decreased by Trib2. These effects on cellular protein levels were DCV concentration-dependent, with the most pronounced effects observed at the highest concentration tested (12 μM).
For orientation: In western blotting, separated proteins are transferred to a membrane and probed.

Data set [9] has as its target T3, pure Trib2 protein (Homo sapiens, UniProt Q92519).
T3 sequence (Q92519 1-343): T2 sequence (Q92519 1-343)
The data set is described as follows: Thermal shift assay by Differential Scanning Spectro-fluorometry. Format: binding. The following applies: decreased from 41° C. (DMSO only). An excerpt:
FIG. 8 depicts a graph showing the results of a thermal shift assay of pure Trib2 protein by Differential Scanning Spectro-fluorometry.

Sequence of p-glycoprotein (PGP) (P08183 whole entry): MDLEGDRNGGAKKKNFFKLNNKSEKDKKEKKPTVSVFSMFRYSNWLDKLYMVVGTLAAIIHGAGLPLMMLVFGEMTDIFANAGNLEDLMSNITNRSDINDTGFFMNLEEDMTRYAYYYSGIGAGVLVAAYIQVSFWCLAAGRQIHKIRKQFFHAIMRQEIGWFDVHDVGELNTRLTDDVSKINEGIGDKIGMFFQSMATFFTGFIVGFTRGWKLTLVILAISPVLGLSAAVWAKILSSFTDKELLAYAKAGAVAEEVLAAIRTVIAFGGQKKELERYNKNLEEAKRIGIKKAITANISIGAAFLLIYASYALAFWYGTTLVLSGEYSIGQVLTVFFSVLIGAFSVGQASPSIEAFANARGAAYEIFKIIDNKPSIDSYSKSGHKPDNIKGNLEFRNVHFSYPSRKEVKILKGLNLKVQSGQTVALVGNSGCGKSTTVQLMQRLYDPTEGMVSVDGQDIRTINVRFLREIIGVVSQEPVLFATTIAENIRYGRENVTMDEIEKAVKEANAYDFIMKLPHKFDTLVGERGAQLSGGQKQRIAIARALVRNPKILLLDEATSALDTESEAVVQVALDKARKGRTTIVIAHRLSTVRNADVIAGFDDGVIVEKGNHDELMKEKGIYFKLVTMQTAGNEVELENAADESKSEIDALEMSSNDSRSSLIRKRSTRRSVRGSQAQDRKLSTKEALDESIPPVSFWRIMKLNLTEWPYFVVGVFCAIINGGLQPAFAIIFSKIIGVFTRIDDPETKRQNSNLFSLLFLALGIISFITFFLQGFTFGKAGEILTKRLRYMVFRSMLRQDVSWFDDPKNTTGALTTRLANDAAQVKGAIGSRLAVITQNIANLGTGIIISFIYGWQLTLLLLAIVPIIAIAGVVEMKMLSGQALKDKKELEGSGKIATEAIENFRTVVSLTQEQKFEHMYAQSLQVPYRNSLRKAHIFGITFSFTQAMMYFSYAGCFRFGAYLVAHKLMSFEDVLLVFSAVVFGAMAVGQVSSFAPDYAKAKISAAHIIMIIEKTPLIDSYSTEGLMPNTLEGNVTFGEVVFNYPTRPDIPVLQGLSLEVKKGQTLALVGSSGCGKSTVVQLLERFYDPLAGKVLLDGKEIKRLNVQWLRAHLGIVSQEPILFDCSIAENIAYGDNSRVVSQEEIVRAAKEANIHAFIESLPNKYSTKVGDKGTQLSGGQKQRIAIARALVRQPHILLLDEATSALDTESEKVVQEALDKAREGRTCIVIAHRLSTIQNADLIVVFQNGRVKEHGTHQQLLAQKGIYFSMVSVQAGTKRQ

As to `COC(=O)N[C@H](C(=O)N1CCC[C@H]1c1nc(-c2ccc(-c3ccc(-c4c[nH]c([C@@H]5CCCN5C(=O)[C@@H](NC(=O)OC)C(C)C)n4)cc3)cc2)c[nH]1)C(C)C` [Daclatasvir, 4,4′-bis[2-((2S)-1-{(2S)-2-[(methoxycarbonyl)amino]-3-methylbutanoyl}-2-pyrrolidinyl)-1H-imidazol-4-yl]-1,1′-biphenyl], in data set [1], the “re-sensitization of resistant cells to enzalutamide” value is listed as “re-sensitizes resistant cells to enzalutamide”. In addition, the soft-agar colony formation entry in [2] is recorded as “completely blocked”. The activity at 10 µM in data set [3] (read-out: Luciferase activity (%)) amounted to 28%. Besides, the inhibition at 10 µM in [3] (read-out: inhibition of Trib2-luciferase activity) was above 70%. Also, the “action on p-glycoprotein (PGP)” value in data set [4] was “inhibitor”. Moreover, the Tumor volumes entry in data set [5] (30 mg/kg/day orally for four weeks, vs vehicle-treated animals) is listed as “significantly reduced”. In [5] (30 mg/kg/day orally, 4 weeks), the “TRIB2 protein levels in tumors by IHC” value is “reduced”. Moreover, the “maximum tolerated dose (MTD)” value in data set [6] is above 200 mg/kg/day. In addition, the “effects on normal, non-cancer cells” value in data set [7] is “minimal effects”. Also, the TRIB2 protein levels entry in [8] (10 μM, Western blot) was “downregulated”; in [8] (12 μM, vs control-treated cells) it was “reduced”. The Trib2 protein level entry in data set [8] (range of aggressive cancer cell lines, including prostate, lung, and kidney) is “downregulates”. Moreover, the “Tm of Trib2 protein in presence of DCV” value in data set [9] came to 37 °C.
